According to BigSolDB 2.1:

COC(=O)Nc1nc2ccccc2[nH]1
solubility (mole fraction)
Conditions	278.15 K	283.15 K	288.15 K	293.15 K	298.15 K	303.15 K	308.15 K	313.15 K	318.15 K	323.15 K
in ethanol	6.39e-06	1.05e-05	1.58e-05	2.3e-05	3.19e-05	4.34e-05	5.78e-05	7.66e-05	0.000101	0.000134
in methanol	3.19e-05	4e-05	5.2e-05	6.33e-05	7.77e-05	9.85e-05	0.000118	0.000143	0.000173	0.000201
in n-butanol	2.12e-06	3.75e-06	6.22e-06	9.84e-06	1.5e-05	2.28e-05	3.34e-05	5.07e-05	7.61e-05	0.000111
in n-pentanol	1e-06	2e-06	3.62e-06	6.19e-06	1.05e-05	1.69e-05	2.87e-05	4.55e-05	6.8e-05	0.000101
in n-propanol	3.3e-06	5.42e-06	8.66e-06	1.3e-05	1.89e-05	2.73e-05	3.92e-05	5.57e-05	8.38e-05	0.00012
